Source: US20200165257A1, “INHIBITORS OF PHOSPHOINOSITIDE 3-KINASE AND HISTONE DEACETYLASE FOR TREATMENT OF CANCER” (THE UNITED STATES OF AMERICA, AS REPRESENTED BY THE …, priority 2017, published 2020)
Read-outs that look alike come from different tables or passages of the source.

Columns and labels:
[1] = molecular target: T1, HDAC6 (Homo sapiens, UniProt Q9UBN7); test: HDAC Fluorescent Activity Assay; format: biochemical; settings: symbols ++ / +; read-out: HDAC6 Inhibition Activity (IC50 class)
T1 sequence (Q9UBN7 1-1215): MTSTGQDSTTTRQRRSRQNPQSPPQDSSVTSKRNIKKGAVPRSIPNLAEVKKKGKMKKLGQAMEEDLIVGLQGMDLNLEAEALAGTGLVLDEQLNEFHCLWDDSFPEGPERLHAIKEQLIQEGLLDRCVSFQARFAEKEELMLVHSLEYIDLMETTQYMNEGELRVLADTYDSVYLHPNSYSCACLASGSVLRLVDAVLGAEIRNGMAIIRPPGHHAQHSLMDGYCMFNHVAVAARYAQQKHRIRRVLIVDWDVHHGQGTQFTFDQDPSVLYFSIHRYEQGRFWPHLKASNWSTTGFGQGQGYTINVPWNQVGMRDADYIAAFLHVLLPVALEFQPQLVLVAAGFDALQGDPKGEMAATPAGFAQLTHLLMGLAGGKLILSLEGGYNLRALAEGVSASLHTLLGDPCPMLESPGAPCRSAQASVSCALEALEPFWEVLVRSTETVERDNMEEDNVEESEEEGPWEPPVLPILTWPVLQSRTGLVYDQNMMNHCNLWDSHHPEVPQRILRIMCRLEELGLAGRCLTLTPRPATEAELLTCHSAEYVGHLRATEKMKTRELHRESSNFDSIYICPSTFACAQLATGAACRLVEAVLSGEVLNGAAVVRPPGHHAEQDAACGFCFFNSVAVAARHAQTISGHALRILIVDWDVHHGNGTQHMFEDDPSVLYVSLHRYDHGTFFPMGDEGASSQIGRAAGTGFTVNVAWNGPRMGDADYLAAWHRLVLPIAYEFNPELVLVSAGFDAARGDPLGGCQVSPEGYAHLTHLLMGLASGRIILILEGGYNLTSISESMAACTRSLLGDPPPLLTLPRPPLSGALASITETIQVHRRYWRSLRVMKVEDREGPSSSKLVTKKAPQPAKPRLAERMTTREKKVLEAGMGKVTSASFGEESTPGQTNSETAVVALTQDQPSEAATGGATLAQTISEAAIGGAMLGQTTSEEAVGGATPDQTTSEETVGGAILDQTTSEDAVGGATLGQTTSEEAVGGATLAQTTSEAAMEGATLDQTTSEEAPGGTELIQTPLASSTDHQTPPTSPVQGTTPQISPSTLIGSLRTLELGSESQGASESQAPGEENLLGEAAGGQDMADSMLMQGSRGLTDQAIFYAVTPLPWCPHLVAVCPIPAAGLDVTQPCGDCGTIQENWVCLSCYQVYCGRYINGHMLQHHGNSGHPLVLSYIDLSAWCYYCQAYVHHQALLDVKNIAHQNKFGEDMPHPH
Protocol: This protocol is to determine the IC50s or percentage of inhibition values of the test compound against HDACs.
The HDAC Fluorescent Activity Assay is based on the unique Fluorogenic Substrate and Developer combination. […] First, the Fluorogenic Substrate, which comprises an acetylated lysine side chain, is incubated with a purified HDAC enzyme. Deacetylation of the substrate sensitizes the substrate so that, in the second step, treatment with the Developer produces a fluorophore.
Testing compounds were dissolved in 100% DMSO to specific concentration. […]
1. Deliver 2× enzyme in wells of reaction plate except No Enzyme control wells. Add buffer in No En wells.
2. Deliver compounds in 100% DMSO into the enzyme mixture by Acoustic technology (Echo550; nanoliter range). Spin down and pre-incubation.
3. Deliver 2× Substrate Mixture (Fluorogenic HDAC Substrate and co-factor if applicable) in all reaction wells to initiate the reaction. Spin and shake.
4. Incubate for 1-2 hr at 30° C. with seal.
5. Add Developer with Trichostatin A (or TMP269) to stop the reaction and to generate fluorescent color.
6. Fluorescence was read (excitatory, 360; emission, 460) using the EnVision Multilabel
7. Take endpoint reading for analysis after the development reaches plateau.
The percentages of enzyme activity (relative to DMSO controls) and IC50 values were calculated using the GraphPad Prism 4 program based on a sigmoidal dose-response equation.

[2] = test system: Ovarian Cell Line IGROV1; format: cell-based; settings: Homo sapiens
[3] = test system: Leukemia Cell Line MOLT-4; format: cell-based; settings: Homo sapiens
[4] = test system: Leukemia Cell Line RPMI-8226; format: cell-based; settings: Homo sapiens
[5] = test system: Ovarian Cell Line OVCAR-3; test: cells; settings: Homo sapiens, OVCAR-3, read-out: inhibition of proliferation
[6] = test system: Ovarian Cell Line OVCAR-8; test: cells; format: cell-based; settings: Homo sapiens; OVCAR-8; single dose, 10 uM compound concentration; read-out: inhibition of proliferation
[7] = test system: Leukemia Cell Line CCRF-CEM; test: cells; format: cell-based; settings: Homo sapiens, read-out: inhibition of proliferation
[8] = test system: Leukemia Cell Line K-562; format: cell-based; settings: Homo sapiens
[9] = test system: Leukemia Cell Line SR; test: cells; format: cell-based; settings: Homo sapiens, read-out: inhibition of proliferation
[10] = test system: Melanoma Cell Line UACC-62; test: cells; format: cell-based; settings: Homo sapiens
[11] = test system: Ovarian Cell Line NCI/ADR-RES; test: cells; format: cell-based; settings: Homo sapiens, read-out: inhibition of proliferation
[12] = test system: Breast Cancer Cell Line HS 578T; format: cell-based; settings: Homo sapiens, read-out: inhibition of proliferation
[13] = test system: Breast Cancer Cell Line MDA-MB-468; test: cells; settings: Homo sapiens, MDA-MB-468, read-out: inhibition of proliferation
[14] = test system: Breast Cancer Cell Line BT-549; test: cells; format: cell-based; settings: Homo sapiens
[15] = test system: Leukemia Cell Line HL-60(TB); format: cell-based; settings: Homo sapiens
[16] = single dose, 10 uM compound concentration

## Cc1nc2cccc(NCc3ccc(C(=O)NO)cc3)c2c(=O)n1-c1ccccc1 [Compound LX, N-hydroxy-4-(((2-methyl-4-oxo-3-phenyl-3,4-dihydroquinazolin-5-yl)amino)methyl)benzamide]
[1]
  IC50: < 0.1 µM
[2]; IGROV-1, IGROV1, single dose, 10 uM compound concentration, read-out: inhibition of proliferation
  inhibition at 10 µM: > 50%
[3]; MOLT-4, single dose, 10 uM compound concentration, read-out: inhibition of proliferation
  inhibition at 10 µM: > 50%
[4]; RPMI-8226, single dose, 10 uM compound concentration, read-out: inhibition of proliferation
  inhibition at 10 µM: > 50%
[5]
  inhibition at 10 µM: > 50%
[6]
  inhibition at 10 µM: > 50%
[7]; [16]
  inhibition at 10 µM: > 50%
[8]; K562, K-562, single dose, 10 uM compound concentration, read-out: inhibition of proliferation
  inhibition at 10 µM: > 50%
[9]; SR, single dose, 10 uM compound concentration
  inhibition at 10 µM: > 50%
[10]; UACC-62, single dose, 10 uM compound concentration, read-out: inhibition of proliferation
  inhibition at 10 µM: > 50%
[11]; [16]
  inhibition at 10 µM: > 50%
[12]; HS 578T, single dose, 10 uM compound concentration
  inhibition at 10 µM: 25 to 50%
[13]
  inhibition at 10 µM: > 50%
[14]; BT-549, single dose, 10 uM compound concentration, read-out: inhibition of proliferation
  inhibition at 10 µM: 25 to 50%
[15]; HL-60(TB), single dose, 10 uM compound concentration, read-out: inhibition of proliferation
  inhibition at 10 µM: > 50%

## CC[C@H](Nc1ncnc2[nH]cnc12)c1nc2cccc(NCc3ccc(C(=O)NO)nc3)c2c(=O)n1-c1ccccc1 [V, (S)-5-(((2-(1-((9H-purin-6-yl)amino)propyl)-4-oxo-3-phenyl-3,4-dihydroquinazolin-5-yl)amino)methyl)-N-hydroxypicolinamide]
[2]; IGROV-1, read-out: inhibition of proliferation
  inhibition at 10 µM: 25 to 50%
[3]; MOLT-4, read-out: inhibition of proliferation
  inhibition at 10 µM: > 50%
[4]; RPMI-8226, read-out: inhibition of proliferation
  inhibition at 10 µM: > 50%
[7]
  inhibition at 10 µM: > 50%
[8]; K562, read-out: inhibition of proliferation
  inhibition at 10 µM: > 50%
[9]
  inhibition at 10 µM: > 50%
[10]; UACC-62, read-out: inhibition of proliferation
  inhibition at 10 µM: > 50%
[11]
  inhibition at 10 µM: 25 to 50%
[12]; Hs-578T
  inhibition at 10 µM: > 50%
[14]; BT-549, read-out: inhibition of proliferation
  inhibition at 10 µM: > 50%
[15]; HL-60, read-out: inhibition of proliferation
  inhibition at 10 µM: > 50%
